Experimental data: patent US8586505B2 (SDS Biotech K. K., priority 2009, dated 2013)

What was measured:
Assay type in all cases: in vivo
Phytophthora infestans = test: whole plant or invertebrate; conditions: in Solanum lycopersicum, 96 h, read-out: Determination of control effect (preventive value)
[1] = tested on: Pseudoperonospora cubensis; test: Test of examining control effect on Pseudoperonospora cubensis (potted cucumber plants); conditions: 96 h, 10% wettable powder adjusted to 125 ppm, 15 ml/pot sprayed on potted cucumber plants one day before spray inoculation, assessed after 1 day wet chamber and 3 days greenhouse, read-out: Determination of control effect (preventive value) on Pseudoperonospora cubensis
Protocol: (§1) Calculation of Preventive Value: Preventive value={(untreated lesion area rate−treated lesion area rate)/untreated lesion area rate}×100
(§2) Using the thus calculated preventive value, the control effect of each compound was determined in accordance with the following standards.
(§3) High control effect: 100%≧preventive value≧60%
(§4) Low control effect: 60%>preventive value≧0%
Using a spray gun, an agent solution prepared by adjusting a 10% wettable powder of each sample compound to 125 ppm (hereinafter referred to as a “sample agent solution”) was sprayed to potted cucumber plants (variety: Sagamihanjiro, 2.5 leave stage) in a concentration of 15 ml/pot. One day after the spraying, a conidial suspension of Pseudoperonospora cubensis (conidial concentration: 1.0×10^4 cells/ml) was applied to the plants by spray inoculation. After completion of the inoculation, the plants were left at 21° C. under wet chamber conditions for 1 day, and were then left in a greenhouse for 3 days, so that they were fully infected with the aforementioned disease. Thereafter, the disease level on each leaf was compared with that on an untreated leaf, and the control effect of each compound was determined in the same manner as in Example 3(1).

Sphaerotheca fuliginea = test: Test of examining control effect on Sphaerotheca fuliginea (potted cucumber plants); conditions: Podosphaera fuliginea, 336 h; 10% wettable powder adjusted to 125 ppm, 15 ml/pot sprayed on potted cucumber plants one day before spray inoculation; assessed after 14 days in greenhouse; read-out: Determination of control effect (preventive value) on Sphaerotheca fuliginea
Protocol: as §1, §2, §3, §4
Using a spray gun, an agent solution prepared by adjusting a 10% wettable powder of each sample compound to 125 ppm (hereinafter referred to as a “sample agent solution”) was sprayed to potted cucumber plants (variety: Sagamihanjiro, 2nd leave stage) in a concentration of 15 ml/pot. One day after the spraying, a conidial suspension of Sphaerotheca fuliginea (conidial concentration: 1.0×10^5 cells/ml) was applied to the plants by spray inoculation. The plants were left in a greenhouse for 14 days, so that they were fully infected with the aforementioned disease. Thereafter, the disease level on each leaf was compared with that on an untreated leaf, and the control effect of each compound was determined in the same manner as in Example 3(1).

Row | SMILES | pest or weed control at 125 ppm (Phytophthora infestans) | pest or weed control at 125 µg/mL [1] | pest or weed control at 125 µg/mL (Sphaerotheca fuliginea)
1 | C=CC(CC#Cc1ccccc1)Nc1ncnc2ccccc12 (stereo not drawn) [compound 296] | 60 to 100% | 60 to 100% | 60 to 100%
2 | Cc1ncnc(NC(C)CC#Cc2ccc(Cl)cc2C(F)(F)F)c1Br (stereo not drawn) [compound 387] | 0 to 60% | 60 to 100% | 60 to 100%
3 | C(#Cc1cccc2ncccc12)CCNc1ncnc2ccccc12 [compound 191] | 0 to 60% | 60 to 100% | 0 to 60%
4 | C(#Cc1ccnc2ccccc12)CCNc1ncnc2ccccc12 [compound 189] | 0 to 60% | 60 to 100% | 60 to 100%
5 | COCc1cc(Cl)ccc1C#CCCNc1ncnc2ccccc12 [compound 140] | 60 to 100% | 60 to 100% | 60 to 100%
6 | CC(CC#Cc1ccc(C(F)(C(F)(F)F)C(F)(F)F)cc1Cl)Nc1ncnc2ccccc12 (stereo not drawn) [compound 281] | 0 to 60% | 60 to 100% | 60 to 100%
7 | COCc1ccccc1C#CCCNc1ncnc2ccc(-c3ccc(F)cc3)cc12 [compound 336] | 0 to 60% | 60 to 100% | 0 to 60%
8 | COCc1ccccc1C#CCCNc1ncnc2c(OC)cccc12 [compound 328] | 0 to 60% | 60 to 100% | 60 to 100%
9 | CC(CC#Cc1ccc(Cl)cc1C(F)(F)F)Nc1ncnc2c(Cl)cccc12 (stereo not drawn) [compound 349] | 0 to 60% | 60 to 100% | 60 to 100%
10 | CC(CC#Cc1ccccc1OC(C)C)Nc1ncnc2sccc12 (stereo not drawn) [compound 242] | 0 to 60% | 60 to 100% | 60 to 100%
11 | Cc1cccc(C#CCCNc2ncnc3ccccc23)n1 [compound 200] | 60 to 100% | 60 to 100% | 60 to 100%
12 | C(#CC1CCCCC1)CCNc1ncnc2ccccc12 [compound 91] | 60 to 100% | 60 to 100% | 60 to 100%
13 | CC(CC#Cc1c(Cl)cccc1C(F)(F)F)Nc1ncnc2sccc12 (stereo not drawn) [compound 252] | 0 to 60% | 60 to 100% | 60 to 100%
14 | C#CCC(Nc1ncnc2ccccc12)c1ccccc1 (stereo not drawn) [compound 300, 4-[(1-Phenyl-3-butynyl)amino]quinazoline] | 0 to 60% | 60 to 100% | 60 to 100%
15 | COC(OC)c1ccccc1C#CCCNc1ncnc2ccccc12 [compound 149] | 0 to 60% | 0 to 60% | 0 to 60%
16 | Cc1ncnc(NC(C)CC#Cc2ccccc2)c1Cl (stereo not drawn) [compound 389] | 0 to 60% | 60 to 100% | 60 to 100%
17 | C#CCCNc1ncnc2ccccc12 [compound 86] | 0 to 60% | 60 to 100% | 60 to 100%
18 | FC(F)(F)c1ccccc1C#CCCNc1ncnc2cc3ccccc3cc12 [compound 342] | 0 to 60% | 60 to 100% | 0 to 60%
19 | CCOC(OCC)c1ccc(C#CCCNc2ncnc3ccccc23)cc1 [compound 151] | 60 to 100% | 60 to 100% | 60 to 100%
20 | Cc1c(Cl)ncnc1NCCC#Cc1ccccc1C(F)(F)F [compound 364] | 0 to 60% | 60 to 100% | 60 to 100%
21 | CC(C)c1ccccc1C#CCCNc1ncnc2ccccc12 [compound 104] | 60 to 100% | 60 to 100% | 60 to 100%
22 | COCc1cc(F)ccc1C#CCCNc1ncnc2ccccc12 [compound 139] | 60 to 100% | 60 to 100% | 60 to 100%
23 | CC(CC#Cc1ccccc1S(C)(=O)=O)Nc1ncnc2sccc12 (stereo not drawn) [compound 237] | 60 to 100% | 60 to 100% | 60 to 100%
